Measured values from patent US4398023A, “β-1,3-Glucanpolyol, process for preparation thereof, and utilization thereof” (Meito Sangyo Kabushiki Kaisha, priority 1979, dated 1983).

Key:
[1] = test system: Sarcoma 180; assay: Antitumor activity test using Sarcoma 180 in C57 BL/6 mice; type: in vivo; settings: 1 mg/kg/day, intraperitoneal, once a day for 10 days, fifth week
Procedure: (§1) The ascites cells of Sarcoma 180 were inoculated peritoneally in ICR-JCL mice having a body weight of about 23 g. […] Starting 24 hours after the transplantation, the glucanpolyol of this invention was intraperitoneally administered once a day for 10 days. In the fifth week, the tumor was enucleated and its weight was compared with that in non-treated groups. The tumor inhibition ratio was calculated, and the number of tumors which completely regressed was observed.
(§2) The tumor inhibition ratio was calculated in accordance with the following equation. [formula] wherein C is the average weight of tumor in non-treated groups (10 mice per group),
(§3) T is the average weight of tumor in treated groups (10 mice per group).
(6) An antitumor activity test using Sarcoma 180 in C57 BL/6 mice
Six million Sarcoma 180 cells were transplanted into the subcutaneous portion of the right inguinal part of the C57 BL/6 mice having a body weight of about 20 g, and then the same operation as in (1) above was performed.

[2] = test system: Meth-A; assay: Antitumor activity test using Meth-A in Balb/c mice; type: in vivo; settings: intraperitoneal, once a day for 10 days, fifth week
Procedure: (§4) Starting 24 hours after the transplantation, the glucanpolyol of this invention was intraperitoneally administered once a day for 10 days. In the fifth week, the tumor was enucleated and its weight was compared with that in non-treated groups. The tumor inhibition ratio was calculated, and the number of tumors which completely regressed was observed.
as §2, §3
(3) An antitumor activity test using Meth-A in Balb/c mice

[3] = test system: ICR-JCL mice; assay: Toxicity (LD50) on ICR-JCL mice; type: in vivo; settings: ICR-JCL mice
Excerpt: The toxicity of the β-1,3-glucanpolyol of this invention is very low, and the LD50 values of the products obtained in Examples 1, 4 and 5, for example, on ICR-JCL mice are as shown in Table 10.

[4] = test system: Ehrlich Carcinoma; assay: Antitumor activity test using Ehrlich Carcinoma in ICR-JCL mice; type: in vivo; settings: intraperitoneal, once a day for 10 days, fifth week
Procedure: as §4, §2, §3
(2) An antitumor activity test using Ehrlich Carcinoma in ICR-JCL mice

[5] = test system: Sarcoma 180; assay: Antitumor activity test using Sarcoma 180 in ICR-JCL mice; type: in vivo; settings: intraperitoneal, once a day for 10 days, fifth week
Procedure: (1) An antitumor activity test using Sarcoma 180 in ICR-JCL mice
as §4, §2, §3

[6] = test system: Sarcoma 180; assay: Antitumor activity test using Sarcoma 180 in ddY mice; type: in vivo; settings: 1 mg/kg/day, intraperitoneal, once a day for 10 days, fifth week
Procedure: as §1, §2, §3
(7) An antitumor activity test using Sarcoma 180 in ddY mice
Six million Sarcoma 180 cells were transplanted into the subcutaneous portion of the right inguinal part of ddY mice having a body weight of about 23 g, and then, the same operation as in (1) above was performed.

[7] = test system: NTF-reticulum cell sarcoma; assay: Antitumor activity test using NTF-reticulum cell sarcoma in ICR-JCL mice; type: in vivo; settings: 1 mg/kg/day, intraperitoneal, once a day for 10 days, fifth week
Procedure: as §1, §2, §3
(9) An antitumor activity test using NTF-reticulum cell sarcoma in ICR-JCL mice
Six million NFT-reticulum cell sarcoma cells were transplanted into the subcutaneous portion of the right inguinal part of ICR-JCL mice having a body weight of about 23 g, and then, the same operation as in (1) above was performed.

[8] = test system: CCM-adenocarcinoma; assay: Antitumor activity test using CCM-adenocarcinoma in ICR-JCL mice; type: in vivo; settings: 1 mg/kg/day, intraperitoneal, once a day for 10 days, fifth week
Procedure: as §1, §2, §3
(8) An antitumor activity test using CCM-adenocarcinoma in ICR-JCL mice
Six million CCM-adenocarcinoma cells were transplanted into the subcutaneous portion of the right inguinal part of ICR-JCL mice having a body weight of about 23 g, and then the same operation as in (1) above was performed.

[9] = test system: Sarcoma 180; assay: Antitumor activity test using Sarcoma 180 in Balb/c mice; type: in vivo; settings: 1 mg/kg/day, intraperitoneal, once a day for 10 days, fifth week
Procedure: as §1, §2, §3
(5) An antitumor activity test using Sarcoma 180 in Balb/c mice
Six million Sarcoma 180 cells were transplanted into the subcutaneous portion of the right inguinal part of the Balb/c mice having a body weight of about 23 g, and then, the same operation as in (1 ) above was performed.

[10] = Intrinsic viscosity [.eta.]; type: physicochemical; settings: 25° C., aqueous solution; concentration in g/100 ml
Procedure: The intrinsic viscosity, as used in the present invention, is [.eta.] defined by the following equation. [formula] wherein .eta.sp =(.eta.-.eta.o)/.eta.o =/.eta.o -1 in which .eta. is the viscosity (at 25° C. in aqueous solution) of the solution and .eta.o is the viscosity of the solvent; and C is the concentration in g/100 ml.

[11] = test system: Sarcoma 180; assay: Antitumor activity test using Sarcoma 180 in C3H/He mice; type: in vivo; settings: intraperitoneal, once a day for 10 days, fifth week
Procedure: as §4, §2, §3
(4) An antitumor activity test using Sarcoma 180 in C3H/He mice

## β-1,3-glucanpolyol [Example 1]
[1]
  Average weight of tumor: 0.15 g
  Complete regression: 8/10
  Tumor inhibition ratio: 95.8%
[2]; 1 mg/kg/day
  Average weight of tumor: 7.74 g
  Complete regression: 0/10
  Tumor inhibition ratio: 42.1%
[2]; 5 mg/kg/day
  Average weight of tumor: 5.57 g
  Complete regression: 0/10
  Tumor inhibition ratio: 58.3%
[2]; 20 mg/kg/day
  Average weight of tumor: 9.25 g
  Complete regression: 0/10
  Tumor inhibition ratio: 30.8%
[3]; intraperitoneal
  LD50 Intraperitoneal administration: above 2 g/kg
[3]; intravenous
  LD50 Intravenous administration: above 0.5 g/kg
[3]; oral
  LD50 Oral administration: above 20 g/kg
[4]; 1 mg/kg/day
  Average weight of tumor: 0 g
  Complete regression: 10/10
  Tumor inhibition ratio: 100%
[4]; 5 mg/kg/day
  Average weight of tumor: 0 g
  Complete regression: 10/10
  Tumor inhibition ratio: 100%
[4]; 20 mg/kg/day
  Average weight of tumor: 0.31 g
  Complete regression: 7/10
  Tumor inhibition ratio: 97.9%
[5]; 1 mg/kg/day
  Average weight of tumor: 0.28 g
  Complete regression: 9/10
  Tumor inhibition ratio: 97.5%
[5]; 5 mg/kg/day
  Average weight of tumor: 0 g
  Complete regression: 10/10
  Tumor inhibition ratio: 100%
[5]; 10 mg/kg/day
  Average weight of tumor: 0.17 g
  Complete regression: 9/10
  Tumor inhibition ratio: 98.5%
[6]
  Average weight of tumor: 0.39 g
  Complete regression: 7/10
  Tumor inhibition ratio: 96.5%
[7]
  Average weight of tumor: 0.51 g
  Complete regression: 8/10
  Tumor inhibition ratio: 91.1%
[8]
  Average weight of tumor: 0.52 g
  Complete regression: 7/10
  Tumor inhibition ratio: 95.7%
[9]
  Average weight of tumor: 0.08 g
  Complete regression: 9/10
  Tumor inhibition ratio: 97.8%
[10]
  Intrinsic viscosity [.eta.]: 6.21 dL/g
[11]; 1 mg/kg/day
  Average weight of tumor: 5.14 g
  Complete regression: 0/10
  Tumor inhibition ratio: 60.2%
[11]; 5 mg/kg/day
  Average weight of tumor: 2.14 g
  Complete regression: 6/10
  Tumor inhibition ratio: 83.4%
[11]; 20 mg/kg/day
  Average weight of tumor: 4.62 g
  Complete regression: 1/10
  Tumor inhibition ratio: 64.2%

## β-1,3-glucanpolyol [Example 2]
[1]
  Average weight of tumor: 0.21 g
  Complete regression: 8/10
  Tumor inhibition ratio: 94.1%
[2]; 5 mg/kg/day
  Average weight of tumor: 6.73 g
  Complete regression: 0/10
  Tumor inhibition ratio: 49.6%
[4]; 1 mg/kg/day
  Average weight of tumor: 1.27 g
  Complete regression: 6/10
  Tumor inhibition ratio: 91.5%
[4]; 5 mg/kg/day
  Average weight of tumor: 0.83 g
  Complete regression: 7/10
  Tumor inhibition ratio: 94.4%
[5]; 5 mg/kg/day
  Average weight of tumor: 0.30 g
  Complete regression: 8/10
  Tumor inhibition ratio: 97.3%
[6]
  Average weight of tumor: 1.08 g
  Complete regression: 7/10
  Tumor inhibition ratio: 90.3%
[7]
  Average weight of tumor: 0.37 g
  Complete regression: 8/10
  Tumor inhibition ratio: 93.6%
[8]
  Average weight of tumor: 0.61 g
  Complete regression: 8/10
  Tumor inhibition ratio: 95.0%
[9]
  Average weight of tumor: 0.09 g
  Complete regression: 8/10
  Tumor inhibition ratio: 97.5%
[10]
  Intrinsic viscosity [.eta.]: 7.25 dL/g
[11]; 5 mg/kg/day
  Average weight of tumor: 3.50 g
  Complete regression: 4/10
  Tumor inhibition ratio: 72.9%

## β-1,3-glucanpolyol [Example 7]
[10]
  Intrinsic viscosity [.eta.]: 8.55 dL/g
